Literature values in patent US20160310525A1, “PREPARATION FOR PREVENTION AND/OR TREATMENT OF PERI-IMPLANTITIS” (RLS GLOBAL AB, priority 2013, published 2016).

Tested on: biofilm on titan specimens

OCl [sodium hypochlorite]
antimicrobial effect on biofilm: effective
